# Measured values published in US10532991B2 (TAIPEI MEDICAL UNIVERSITY, priority 2018, dated 2020).
# Assays:
# [1] = Human liver microsome stability; assay type: in vitro ADME; settings: human liver microsomes, 1 μM test compound, 37° C.; CLint = k/P
# [2] = in vivo; cited from earlier work
Compound,CLint (intrinsic clearance) [1] [mL/min/mg Protein],area under the curve (AUC) [2] [ng·h/mg],t1/2 [2] [h]
"C[C@]12CC[C@H]3[C@@H](CCC4=CC(=O)CC[C@@]43C)[C@@H]1CC[C@@H]2O [Testosterone, testosterone, reference compound]",0.0727,–,–
[2H]C([2H])([2H])Oc1cc2c(cc1OC([2H])([2H])[2H])C1CC(=O)C(CC(C)C)CN1CC2 (centres unmarked) [deutetrabenazine],–,542,8.6
COc1cc2c(cc1OC)C1CC(=O)C(CC(C)C)CN1CC2 (centres unmarked) [tetrabenazine],–,261,4.8
